ChEMBL document CHEMBL1133467, “Identification of novel inhibitors of urokinase via NMR-based screening” (J Med Chem, 2000)

Columns and labels:
[1] = Acid dissociation constant (pKa) of the compound; type: physicochemical
[2] = biological target: Urokinase-type plasminogen activator (Homo sapiens, UniProt P00749); experiment: Inhibitory activity against Urokinase-type plasminogen activator

Compound | pKa [1] | IC50 [2]
N=C(N)Nc1ccccc1 [PHENYLGUANIDINE] | 10.9 | 20 µM
Nc1nc2cc(O)ccc2[nH]1 | 7.4 | 
Nc1nc2ccccc2[nH]1 | 7.5 | 200 µM
N=C(N)c1ccc(N)cc1 | 11.4 | 7 µM
